What was measured:
redroot pigweed = assay: Test Example 4: herbicidal effect by soil treatment (Table 19, symbol N); type: in vivo, redroot pigweed (Amaranthus retroflexus); settings: amount of applied herbicide 320 g/ha
Outline: (§1)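 Three weeks of greenhouse growth at 25° C. to 30° C. followed a uniform surface spray of water-diluted emulsion at a predetermined herbicide amount. Seeds had been sown beforehand under about 1.5 cm of sterilized diluvial soil. Grading followed criteria set out in an earlier test.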

oval-leafed pondweed [1] = assay: Test Example 1: herbicidal activity, application before weed generation under submerged conditions (Table 16, symbol C); type: in vivo, oval-leafed pondweed (Monochoria vaginalis); settings: 320 g/ha applied herbicide
Outline: (§2)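 Submerged Wagner pots (alluvial soil, 4 cm water) sown with weed seeds and planted with 2.5-leaf rice seedlings; emulsifiable concentrate diluted in water applied to water surface on sowing day. Held in greenhouse at 25-30 °C; injury scored 0-5 by herbicidal rate after three weeks.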

rice flat sedge = assay: Test Example 3: herbicidal effect by foliage application, Wagner pot (Table 18, symbol E); type: in vivo, rice flat sedge (Cyperus iria); settings: amount of applied herbicide 320 g/ha
Outline: (§3)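 Plants were sown in alluvial soil held under 0.1–0.5 cm standing water and grown 14 days in a greenhouse at 25–30 °C. An emulsifiable formulation, water-diluted to the set dose, was then sprayed onto the foliage, and effects were scored three weeks later using previously defined criteria.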

blackgrass = assay: Test Example 4: herbicidal effect by soil treatment (Table 19, symbol J); type: in vivo, blackgrass (Alopecurus myosuroides); settings: amount of applied herbicide 320 g/ha
Outline: as §1

Japanese bulrush [2] = assay: Test Example 2: herbicidal activity, application during weed generation under submerged conditions (Table 17, symbol B); type: in vivo, Japanese bulrush (Schoenoplectus juncoides); settings: AAH 320 g/ha; application during weed generation, submerged conditions
Outline: (§4)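 Herbicide emulsion, diluted with water to the chosen amount, is applied onto 4 cm floodwater over alluvial soil where the weeds were co-sown and raised at 25–30° C. Application timing: 1–2 leaves. Assessment: three weeks afterwards.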

southern crabgrass = assay: Test Example 4: herbicidal effect by soil treatment (Table 19, symbol F); type: in vivo, southern crabgrass (Digitaria ciliaris); settings: amount of applied herbicide 320 g/ha
Outline: as §1

barnyard grass [3] = assay: Test Example 3: herbicidal effect by foliage application, Wagner pot (Table 18, symbol H); type: in vivo, barnyard grass (Echinochloa crus-galli); settings: amount of applied herbicide 320 g/ha
Outline: as §3

wild oat = assay: Test Example 4: herbicidal effect by soil treatment (Table 19, symbol I); type: in vivo, wild oat (Avena fatua); settings: amount of applied herbicide 320 g/ha
Outline: as §1

Japanese bulrush [4] = assay: Test Example 1: herbicidal activity, application before weed generation under submerged conditions (Table 16, symbol B); type: in vivo, Japanese bulrush (Schoenoplectus juncoides); settings: 320 g/ha applied herbicide
Outline: as §2

persian speedwell = assay: Test Example 4: herbicidal effect by soil treatment (Table 19, symbol R); type: in vivo, Persian speedwell (Veronica persica); settings: amount of applied herbicide 320 g/ha
Outline: as §1

late watergrass [5] = assay: Test Example 2: herbicidal activity, application during weed generation under submerged conditions (Table 17, symbol A); type: in vivo, late watergrass (Echinochloa oryzicola); settings: AAH 320 g/ha; application during weed generation, submerged conditions
Outline: as §4

velvetleaf = assay: Test Example 4: herbicidal effect by soil treatment (Table 19, symbol M); type: in vivo, velvetleaf (Abutilon theophrasti); settings: amount of applied herbicide 320 g/ha
Outline: as §1

oval-leafed pondweed [6] = assay: Test Example 2: herbicidal activity, application during weed generation under submerged conditions (Table 17, symbol C); type: in vivo, oval-leafed pondweed (Monochoria vaginalis); settings: AAH 320 g/ha; application during weed generation, submerged conditions
Outline: as §4

lambsquarters = assay: Test Example 4: herbicidal effect by soil treatment (Table 19, symbol O); type: in vivo, lambsquarters (Chenopodium album); settings: amount of applied herbicide 320 g/ha
Outline: as §1

Chinese sprangletop = assay: Test Example 3: herbicidal effect by foliage application, Wagner pot (Table 18, symbol D); type: in vivo, chinese sprangletop (Leptochloa chinensis); settings: amount of applied herbicide 320 g/ha
Outline: as §3

green foxtail = assay: Test Example 4: herbicidal effect by soil treatment (Table 19, symbol G); type: in vivo, green foxtail (Setaria viridis); settings: amount of applied herbicide 320 g/ha
Outline: as §1

Italian ryegrass = assay: Test Example 4: herbicidal effect by soil treatment (Table 19, symbol K); type: in vivo, Italian ryegrass (Lolium multiflorum); settings: amount of applied herbicide 320 g/ha
Outline: as §1

windgrass = assay: Test Example 4: herbicidal effect by soil treatment (Table 19, symbol L); type: in vivo, windgrass (Apera spica-venti); settings: amount of applied herbicide 320 g/ha
Outline: as §1

chickweed = assay: Test Example 4: herbicidal effect by soil treatment (Table 19, symbol P); type: in vivo, common chickweed (Stellaria media); settings: amount of applied herbicide 320 g/ha
Outline: as §1

barnyard grass [7] = assay: Test Example 4: herbicidal effect by soil treatment (Table 19, symbol H); type: in vivo, barnyard grass (Echinochloa crus-galli); settings: amount of applied herbicide 320 g/ha
Outline: as §1

late watergrass [8] = assay: Test Example 1: herbicidal activity, application before weed generation under submerged conditions (Table 16, symbol A); type: in vivo, late watergrass (Echinochloa oryzicola); settings: 320 g/ha applied herbicide
Outline: as §2

| SMILES | herbicidal effect on N: redroot pigweed (redroot pigweed) | Herbicidal effect on C: oval-leafed pondweed (grade 0-5) (oval-leafed pondweed [1]) | herbicidal effect on E: rice flat sedge (rice flat sedge) | herbicidal effect on J: blackgrass (blackgrass) | herbicidal effect rating, B: Japanese bulrush (Japanese bulrush [2]) | herbicidal effect on F: southern crabgrass (southern crabgrass) | herbicidal effect on H: barnyard grass (barnyard grass [3]) | herbicidal effect on I: wild oat (wild oat) | Herbicidal effect on B: Japanese bulrush (grade 0-5) (Japanese bulrush [4]) | herbicidal effect on R: persian speedwell (persian speedwell) | herbicidal effect rating, A: late watergrass (late watergrass [5]) | herbicidal effect on M: velvetleaf (velvetleaf) | herbicidal effect rating, C: oval-leafed pondweed (oval-leafed pondweed [6]) | herbicidal effect on O: lambsquarters (lambsquarters) | herbicidal effect on D: Chinese sprangletop (Chinese sprangletop) | herbicidal effect on G: green foxtail (green foxtail) | herbicidal effect on K: Italian ryegrass (Italian ryegrass) | herbicidal effect on L: windgrass (windgrass) | herbicidal effect on P: chickweed (chickweed) | Herbicidal effect on A: late watergrass (grade 0-5) (late watergrass [8]) | also measured |
| --- | --- | --- | --- | --- | --- | --- | --- | --- | --- | --- | --- | --- | --- | --- | --- | --- | --- | --- | --- | --- | --- |
| Cc1nn(C)c(=O)c(-c2c(-c3ccc(Cl)c(F)c3)sc3ccc(F)cc23)c1O [2-350] | 5 (Herbicidal rate of 90% or more (almost completely withered)) | 0 (Herbicidal rate of 5% or less (almost no effect)) | 5 (Herbicidal rate of 90% or more (almost completely withered)) | 0 (Herbicidal rate of 5% or less (almost no effect)) | 2 (Herbicidal rate of 20% or more and less than 40%) | 4 (Herbicidal rate of 70% or more and less than 90%) | 5 (Herbicidal rate of 90% or more (almost completely withered)) | 0 (Herbicidal rate of 5% or less (almost no effect)) | 0 (Herbicidal rate of 5% or less (almost no effect)) | 5 (Herbicidal rate of 90% or more (almost completely withered)) | 0 (Herbicidal rate of 5% or less (almost no effect)) | 3 (Herbicidal rate of 40% or more and less than 70%) | 0 (Herbicidal rate of 5% or less (almost no effect)) | 4 (Herbicidal rate of 70% or more and less than 90%) | 5 (Herbicidal rate of 90% or more (almost completely withered)) | 5 (Herbicidal rate of 90% or more (almost completely withered)) | 4 (Herbicidal rate of 70% or more and less than 90%) | 4 (Herbicidal rate of 70% or more and less than 90%) | 3 (Herbicidal rate of 40% or more and less than 70%) | 3 (Herbicidal rate of 40% or more and less than 70%) | herbicidal effect on H: barnyard grass (barnyard grass [7]): 5 (Herbicidal rate of 90% or more (almost completely withered)) |
| CCCC(=O)Oc1c(C)nn(C)c(=O)c1-c1c(-c2ccc(Cl)c(F)c2)sc2ccc(F)cc12 [2-351] | 3 (Herbicidal rate of 40% or more and less than 70%) | 3 (Herbicidal rate of 40% or more and less than 70%) | 4 (Herbicidal rate of 70% or more and less than 90%) | 0 (Herbicidal rate of 5% or less (almost no effect)) | 3 (Herbicidal rate of 40% or more and less than 70%) | 0 (Herbicidal rate of 5% or less (almost no effect)) | 5 (Herbicidal rate of 90% or more (almost completely withered)) | 0 (Herbicidal rate of 5% or less (almost no effect)) | 3 (Herbicidal rate of 40% or more and less than 70%) | 3 (Herbicidal rate of 40% or more and less than 70%) | 3 (Herbicidal rate of 40% or more and less than 70%) | 0 (Herbicidal rate of 5% or less (almost no effect)) | 4 (Herbicidal rate of 70% or more and less than 90%) | 3 (Herbicidal rate of 40% or more and less than 70%) | 5 (Herbicidal rate of 90% or more (almost completely withered)) | 0 (Herbicidal rate of 5% or less (almost no effect)) | 0 (Herbicidal rate of 5% or less (almost no effect)) | 0 (Herbicidal rate of 5% or less (almost no effect)) | 1 (Herbicidal rate of 5% or more and less than 20%) | 5 (Herbicidal rate of 90% or more (almost completely withered)) | herbicidal effect on H: barnyard grass (barnyard grass [7]): 0 (Herbicidal rate of 5% or less (almost no effect)) |
| CCCC(=O)Oc1c(C)nn(C)c(=O)c1-c1c(-c2ccc(F)c(Cl)c2)sc2ccc(F)cc12 [2-353] | – | 0 (Herbicidal rate of 5% or less (almost no effect)) | 5 (Herbicidal rate of 90% or more (almost completely withered)) | – | 3 (Herbicidal rate of 40% or more and less than 70%) | – | 5 (Herbicidal rate of 90% or more (almost completely withered)) | – | 0 (Herbicidal rate of 5% or less (almost no effect)) | – | 4 (Herbicidal rate of 70% or more and less than 90%) | – | 3 (Herbicidal rate of 40% or more and less than 70%) | – | 5 (Herbicidal rate of 90% or more (almost completely withered)) | – | – | – | – | 2 (Herbicidal rate of 20% or more and less than 40%) | herbicidal effect, N: redroot pigweed (redroot pigweed): 4 (Herbicidal rate of 70% or more and less than 90%); herbicidal effect, J: blackgrass (blackgrass): 0 (Herbicidal rate of 5% or less (almost no effect)); herbicidal effect, F: southern crabgrass (southern crabgrass): 3 (Herbicidal rate of 40% or more and less than 70%); herbicidal effect, I: wild oat (wild oat): 0 (Herbicidal rate of 5% or less (almost no effect)); herbicidal effect, R: persian speedwell (persian speedwell): 3 (Herbicidal rate of 40% or more and less than 70%); herbicidal effect, M: velvetleaf (velvetleaf): 2 (Herbicidal rate of 20% or more and less than 40%); herbicidal effect, O: lambsquarters (lambsquarters): 4 (Herbicidal rate of 70% or more and less than 90%); herbicidal effect, G: green foxtail (green foxtail): 1 (Herbicidal rate of 5% or more and less than 20%); herbicidal effect, K: Italian ryegrass (Italian ryegrass): 4 (Herbicidal rate of 70% or more and less than 90%); herbicidal effect, L: windgrass (windgrass): 3 (Herbicidal rate of 40% or more and less than 70%); herbicidal effect, P: chickweed (chickweed): 3 (Herbicidal rate of 40% or more and less than 70%); herbicidal effect, H: barnyard grass (barnyard grass [7]): 1 (Herbicidal rate of 5% or more and less than 20%) |

— patent US20230085307A1, “PYRIDAZINONE COMPOUND AND HERBICIDE” (NISSAN CHEMICAL CORPORATION, priority 2019, published 2023)
